Test in all cases: relative viability (nuclei count vs DMSO), 5 days (fraction); higher = more cells survive
Compound in the experiment “Sulindac + Trametinib”: CC1=C(CC(=O)O)c2cc(F)ccc2/C1=C\c1ccc([S+](C)[O-])cc1 [Sulindac] + CC(=O)Nc1cccc(-n2c(=O)n(C3CC3)c(=O)c3c(Nc4ccc(I)cc4F)n(C)c(=O)c(C)c32)c1 [Trametinib] (partner 0.02 µM)
The method, boiled down: (§1)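 Lung cancer cell lines in 1536-well plates got either a single drug or a fixed anchor-drug dose together with five library-drug doses (not always all listed) in √10 steps, by pin tool, on the day after seeding. Nuclei were counted after 5 days, and relative viability is the treated-to-vehicle ratio of nuclei counts. Values are medians of duplicate plates.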

Compound in the experiment “5-Fluorouracil + AZD7762”: O=c1[nH]cc(F)c(=O)[nH]1 [5-Fluorouracil] + NC(=O)Nc1cc(-c2cccc(F)c2)sc1C(=O)N[C@H]1CCCNC1 [AZD7762] (partner 0.2 µM)
The method, boiled down: as §1

Compound in experiment [1]: CN[C@@H]1C[C@H]2O[C@@](C)([C@@H]1OC)n1c3ccccc3c3c4c(c5c6ccccc6n2c5c31)C(=O)NC4 [Staurosporine] + CC(=O)Nc1cccc(-n2c(=O)n(C3CC3)c(=O)c3c(Nc4ccc(I)cc4F)n(C)c(=O)c(C)c32)c1 [Trametinib] (partner 0.02 µM)
The method, boiled down:
as §1

Compound in experiment [2]: O=c1[nH]cc(F)c(=O)[nH]1 [5-Fluorouracil] + O=C(c1cc(Cc2n[nH]c(=O)c3ccccc23)ccc1F)N1CCN(C(=O)C2CC2)CC1 [Olaparib] (partner 8 µM)
The method, boiled down:
as §1

With NCI-H1648, the relative viability with Sulindac + Trametinib (first compound 0.08 µM) was determined as 0.379; in the experiment with Sulindac + Trametinib (first compound 0.253 µM), 0.414; in the experiment with Sulindac + Trametinib (first compound 2.53 µM), 0.473; with Sulindac + Trametinib (first compound 8 µM), 0.422; in the experiment with 5-Fluorouracil + AZD7762 (first compound 0.02 µM) it was 0.582; with 5-Fluorouracil + AZD7762 (first compound 0.2 µM) it was 0.831. The relative viability with 5-Fluorouracil + AZD7762 (first compound 0.6325 µM) was found to be 0.493; in the experiment with 5-Fluorouracil + AZD7762 (first compound 2 µM), 0.435; in experiment [1] (first compound 0.005 µM) it was 0.586; in experiment [1] (first compound 0.01581 µM) it was 0.299; in experiment [1] (first compound 0.05 µM), 0.0693; in experiment [1] (first compound 0.1581 µM), 0.25. For the same cell line, the relative viability in experiment [1] (first compound 0.5 µM) is 0.265; in experiment [2] (first compound 0.02 µM) it was 0.632; in experiment [2] (first compound 0.2 µM), 0.796; in experiment [2] (first compound 0.6325 µM), 0.638; in experiment [2] (first compound 2 µM), 0.332.
For NCI-H1651, the relative viability with Sulindac + Trametinib (first compound 0.08 µM) stood at 0.797; in the experiment with Sulindac + Trametinib (first compound 0.253 µM) it was 0.844; with Sulindac + Trametinib (first compound 0.8 µM), 0.733; in the experiment with Sulindac + Trametinib (first compound 2.53 µM), 0.801; with Sulindac + Trametinib (first compound 8 µM), 0.845; in the experiment with 5-Fluorouracil + AZD7762 (first compound 0.02 µM), 0.458. Also, the relative viability in the experiment with 5-Fluorouracil + AZD7762 (first compound 0.2 µM) turned out to be 0.234; with 5-Fluorouracil + AZD7762 (first compound 0.6325 µM), 0.186; in experiment [1] (first compound 0.005 µM), 0.871; in experiment [1] (first compound 0.01581 µM) it was 0.785; in experiment [1] (first compound 0.05 µM), 0.569; in experiment [1] (first compound 0.1581 µM) it was 0.509. Moreover, the relative viability in experiment [1] (first compound 0.5 µM) stood at 0.346; in experiment [2] (first compound 0.02 µM), 0.172; in experiment [2] (first compound 0.2 µM), 0.2; in experiment [2] (first compound 0.6325 µM), 0.188; in experiment [2] (first compound 2 µM) it was 0.175.
On to NCI-H1666, for which the relative viability with Sulindac + Trametinib (first compound 0.08 µM) worked out at 0.895; with Sulindac + Trametinib (first compound 0.253 µM), 0.889; with Sulindac + Trametinib (first compound 0.8 µM), 0.775; in the experiment with Sulindac + Trametinib (first compound 2.53 µM) it was 0.924; with Sulindac + Trametinib (first compound 8 µM) it was 0.93; with 5-Fluorouracil + AZD7762 (first compound 0.02 µM), 0.708. The relative viability with 5-Fluorouracil + AZD7762 (first compound 0.2 µM) was 0.389; in the experiment with 5-Fluorouracil + AZD7762 (first compound 0.6325 µM), 0.462; with 5-Fluorouracil + AZD7762 (first compound 2 µM), 0.426; in experiment [1] (first compound 0.005 µM), 0.785; in experiment [1] (first compound 0.01581 µM), 0.573; in experiment [1] (first compound 0.05 µM), 0.635. The relative viability in experiment [1] (first compound 0.1581 µM) came to 0.513; in experiment [1] (first compound 0.5 µM), 0.456; in experiment [2] (first compound 0.02 µM) it was 0.861; in experiment [2] (first compound 0.2 µM), 0.67; in experiment [2] (first compound 0.6325 µM), 0.647; in experiment [2] (first compound 2 µM) it was 0.625.
Take NCI-H1734: the relative viability was 0.673 in the experiment with Sulindac + Trametinib (first compound 0.08 µM); 0.725 in the experiment with Sulindac + Trametinib (first compound 0.253 µM); 0.575 with Sulindac + Trametinib (first compound 0.8 µM); 0.693 with Sulindac + Trametinib (first compound 2.53 µM); 0.832 in the experiment with Sulindac + Trametinib (first compound 8 µM); 0.539 with 5-Fluorouracil + AZD7762 (first compound 0.02 µM). Further, the relative viability with 5-Fluorouracil + AZD7762 (first compound 0.2 µM) turned out to be 0.613; with 5-Fluorouracil + AZD7762 (first compound 0.6325 µM) it was 0.54; with 5-Fluorouracil + AZD7762 (first compound 2 µM), 0.314; in experiment [1] (first compound 0.005 µM), 0.715; in experiment [1] (first compound 0.01581 µM) it was 0.387; in experiment [1] (first compound 0.05 µM) it was 0.165. The relative viability in experiment [1] (first compound 0.1581 µM) was 0.119; in experiment [1] (first compound 0.5 µM), 0.101; in experiment [2] (first compound 0.02 µM), 0.586; in experiment [2] (first compound 0.2 µM), 0.667; in experiment [2] (first compound 0.6325 µM) it was 0.53; in experiment [2] (first compound 2 µM), 0.393.
On to NCI-H1755, for which the relative viability was 0.886 in the experiment with Sulindac + Trametinib (first compound 0.08 µM); 0.751 in the experiment with Sulindac + Trametinib (first compound 0.253 µM); 0.775 in the experiment with Sulindac + Trametinib (first compound 0.8 µM); 0.812 with Sulindac + Trametinib (first compound 2.53 µM); 0.89 with Sulindac + Trametinib (first compound 8 µM); 0.4 with 5-Fluorouracil + AZD7762 (first compound 0.02 µM). Besides, the relative viability came to 0.31 with 5-Fluorouracil + AZD7762 (first compound 0.2 µM); 0.285 with 5-Fluorouracil + AZD7762 (first compound 0.6325 µM); 0.28 with 5-Fluorouracil + AZD7762 (first compound 2 µM); 0.663 in experiment [1] (first compound 0.005 µM); 0.479 in experiment [1] (first compound 0.01581 µM); 0.263 in experiment [1] (first compound 0.05 µM). The relative viability worked out at 0.212 in experiment [1] (first compound 0.1581 µM); 0.193 in experiment [1] (first compound 0.5 µM); 0.817 in experiment [2] (first compound 0.02 µM); 0.665 in experiment [2] (first compound 0.2 µM); 0.374 in experiment [2] (first compound 0.6325 µM); 0.319 in experiment [2] (first compound 2 µM).

The values above are taken from the supplement of paper PMC10307832.
